Measured values reported in patent publication US20020086027A1, “Composition and method for enhancing immunological memory response” (priority 1998, published 2002).

What was measured:
human T cells [1] = assay: Primary alloproliferative response of responder PBMCs to irradiated MHC-mismatched stimulator PBMCs ([3H]thymidine incorporation); format: cell-based
Experimental: In this system, we have used responses to first exposure as an indication of primary responses. When cells stimulated in this fashion are rested in culture and then restimulated with the same stimulator PBMCs, the 'recall' response measured are taken as an indication of immune memory. Proliferation is measured by the incorporation of radioactive tritiated thymidine in dividing cells. PBMCs from HLA-mismatched individuals were separated using density-gradient centrifugation on Ficoll-Paque (Pharmacia, Uppsala, Sweden). Stimulator PBMCs were used in titrated doses after g-irradiation (200 rads). For the primary proliferative alloresponses, stimulator in graded doses were used with 1-3×10^5 responders per well in 200 μl of RPMI-1640 (Life Technologies, Grand Island, N.Y.) fortified with L-glutamine (Life Technologies) and antibiotics, containing 10% heat-inactivated responder autologous serum. Cultures were incubated in a CO2 atmosphere for five days, pulsed with 0.5 uCi of (H^3)-thymidine (New England Nuclear, Boston, Mass.) for the last 8-12 hours of the assay and harvested onto glass fiber filters for counting cell-incorporated thymidine (Betaplate; Wallac, Finland). results are expressed as mean cpm±SE for triplicate cultures. Dibutyryl cyclic AMP (dbcAMP), pentoxifylline (POX), aphidicolin (all from Sigma Chemical Co., St Louis, Mo.) and recombinant IL-2 (Boehringer Manheim Corp., Manheim Germany) were added singly or together to the culture in various doses as indicated during priming and in primary alloresponse assays. […] Sigma Chemical Co.) at room temperature for 20 minutes, washed extensively and used. PBMCs from MHC-mismatched donors were used as responder-stimulator pairs. Stimulator cells were used after γ-irradiation (200 rad) at various concentrations, as shown. Proliferation assays were set up as parallel cultures and were pulsed and harvested as below on different days when necessary for the analyses of the kinetics of the response. Where appropriate, cyclosporin A (CsA, Sandoz, Milan, Italy), aphidicolin (Aph, Sigma Chemical Co., and/or pentoxifylline ([…], Sigma Chemical Co.) Were added at the concentrations indicated, or PFA-fixed PBMCs were used. The plated were pulsed with 0.5 to 1 μCi of (^3H)thymidine ([^3H]TdR. Amersham, Little Chalfont, U.K.) During the last 12 to 16 h of the assay (4 days for a recall assay and 6 days for a primary assay, unless indicated otherwise). [^3H] TdR incorporation was measured by harvesting the cultures on glass-fibers and counting in a scintillation counter (Betaplate: LKB-Pharmacia. Uppsala, […]). The results are expressed as mean cpm±SE of triplicate cultures.

human T cells [2] = assay: Secondary (recall) alloproliferative response of T cells primed in vitro; format: cell-based; conditions: for memory/recall proliferative response: primed with allo-PBMCs in presence of 100 ug/ml drug, restimulated without drug
Experimental: In this system, we have used responses to first exposure as an indication of primary responses. When cells stimulated in this fashion are rested in culture and then restimulated with the same stimulator PBMCs, the 'recall' response measured are taken as an indication of immune memory. Proliferation is measured by the incorporation of radioactive tritiated thymidine in dividing cells. For priming, responder and stimulator cells mixed in 2-5 ml cultures in a ratio of 1:1-3:1. After five days of incubation, the cells were harvested, counted and viable cells used as primed responders with g-irradiated allostimulators in secondary alloproliferation assays, which were pulsed with (H^3)-thymidine after four days for estimating cell proliferation. For flow cytometric analysis, cells were separated from debris by Ficoll-Paque gradient centrifugation before staining. […] Sigma Chemical Co.) at room temperature for 20 minutes, washed extensively and used. For priming in vitro, responder PBMCs were incubated for 72 or 144 h at a ratio of either 1:1 or 2:1 respectively, with stimulator PBMCs. Where appropriate, CsA. Aph. and/or […] were added at the concentrations indicated, of PFA-fixed PBMCs were used instead.

CD25+ primed T cells = assay: Propidium iodide staining for apoptosis of CD25+ primed T cells; format: cell-based, human; conditions: over the 48 hour rest period after priming with drug
Experimental: For analysis of cell surface markers, primed cell populations separated on Ficoll-Paque gradients were used. […] Briefly, 1-3×10^5 cells per well were stained with primary antibodies at 4° C., followed by appropriately labeled secondary reagents if required. Samples were analyzed using a Bryte flow cytometer (bio-Rad, Hemel Hampstead, UK). Antibodies to the T cell markers CD3 (OKT3), CD4 (OKT4), and to the activation markers CD25 and Fas (CD95) were used for staining. To detect apoptosis using propidium iodide (PI, Sigma Chemical Co.), antibody-stained cells were fixed and permeabilized with 70% ethanol, washed, and PI […] added just before cytometric analysis. Data were analyzed using FlowJo software (Treestar, San Jose, Calif.).
The differences between the kinetics of CD25 expression over two days of rest culture prompted the question of whether this was linked to effects of POX on the survival of T cells activated during priming. Almost all CD25^+ cells generated during priming were CD4 T cells (FIG. 17A). therefore, responder populations primed variously were stained in a two-color flow cytometric analysis for CD25 and Fas, since Fas engagement is involved in activation induced T cell death. The frequency and level of Fas expression in the CD25^+ population was unchanged in the presence (FIG. 20, panels B and D) or absence (panels A and C) of POX during priming. […]

[3] = test system: antigen-specific T cell memory; assay: Mice immunized with ovalbumin without adjuvant, splenic T cell recall proliferation; format: in vivo; conditions: POX 1 mg per mouse per day, day -1 to day 5
Experimental: Splenic cells were stimulated in vitro either on day 7 or on day 60 after immunization with titrated doses of ovalbumin for 4 days and pulsed with 3H-thymidine for 16 h before being harvested for scintillation spectrometry In the second system used to validate the memory-enhancing effects of POX, we have used immunization with a very poor immunogen, egg albumin without adjuvant.

T cell lines = assay: Intracellular cAMP levels in T cell lines; format: cell-based; conditions: preliminary experiments
From the text: Several effects of POX on T cell signaling pathways have been reported. […] A major consequence of inhibition of phosphodiesterase is an increase in the levels of intracellular cAMP. […] This raises the possibility that although dbcAMP mimics POX in its effects on T cell priming, the precise molecular pathways involved may differ.

human T cells [4] = assay: Response of primed cells to IL-2 or PHA; format: cell-based; conditions: for response of primed cells to PHA: primed in presence vs absence of 100 ug/ml drug
Experimental: For priming in vitro, responder PBMCs were incubated for 72 or 144 h at a ratio of either 1:1 or 2:1 respectively, with stimulator PBMCs. Where appropriate, CsA. Aph. and/or Trental were added at the concentrations indicated, of PFA-fixed PBMCs were used instead.

[5] = orally administered; cited from earlier work
[6] = test system: mercuric chloride-induced arthritis; conditions: rats; cited from earlier work

CC(=O)CCCCn1c(=O)c2c(ncn2C)n(C)c1=O [POX, pentoxifylline]
primary proliferative response (human T cells [1]; Trental 100 ug/ml added to cells on 1 μg/ml Aph): further decreases
kinetics of primary response (human T cells [1]; days 4-10, drugs present throughout): declines equivalently
primary proliferative response (human T cells [1]; drug 100 ug/ml present during primary alloresponse): declines
primary proliferative response (human T cells [1]; drug 100 ug/ml present during primary alloresponse, listed as Trental): reduced significantly
primary response after drug removal (human T cells [1]; drugs removed on day 6, pulsed days 8 and 10): no increase
primary proliferative response (human T cells [1]; increasing doses 1-300 μg/ml, preliminary titrations): decrease
primary response to PF-fixed PBMCs (human T cells [1]; stimulators fixed with 0.05% PF, POX 100 ug/ml): not enhanced
subsequent alloproliferative response of unprimed cells incubated with drug alone (human T cells [2]; 100 μg/ml, no stimulators during incubation): does not enhance
enhancing effect on the recall response (human T cells [2]; lower doses of Trental during priming): decreases
secondary response to unfixed PBMCs (human T cells [2]; primed with PF-fixed PBMCs in presence of POX 100 ug/ml): enhanced
recall response (human T cells [2]; primed with Trental plus Aph vs Aph alone): still higher
memory/recall proliferative response (human T cells [2]): much improved
memory/recall proliferative response (human T cells [2]; listed as Trental): enhanced
proportion of apoptotic cells in the CD25+ population (CD25+ primed T cells): does not increase significantly
T cell memory recalled ([3]; day 7 post-immunization): higher
T cell memory recalled ([3]; day 60 post-immunization): dramatically high
intracellular cAMP levels (T cell lines): does not increase
response of primed cells to IL-2 (human T cells [4]; primed in presence vs absence of 100 μg/ml Trental): to the same extent
response of primed cells to PHA (human T cells [4]): does not bring about any enhancement
response of primed cells to PHA (human T cells [4]; listed as Trental): comparable
LD50 [5]: about 1385 milligrams per kilogram body weight
protection against arthritis [6]: significant protection
